Consider 26 compounds from PubChem BioAssay AID330 (DTP/NCI, 2004).

“And” between values parts separate entries of the source, which are not always exact repeats. Equal entries are not always repeated. Toxic doses and inconclusive results are not listed.

This experiment deals with P388 leukemia ip, CD2F1 mice, survival T/C. As to the kind of experiment: NCI In Vivo Anticancer Drug Screen. Data for tumor model P388 Leukemia (intraperitoneal) in CD2F1 (CDF1) mice. As to conditions: endpoint: median survival time, higher = longer survival. A digest of the protocol: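 Mice carrying the transplanted tumor received test compound or vehicle. Survival was recorded in each group, and the value is the treated-group measurement divided by that of the vehicle-treated control group.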

Where [1] appears, read: dose: 50.0 mg/kg/injection, schedule: Q01DX009 (ip), vehicle: Klucel (hydroxypropylcellulose) (HPC).
Setting [2] is: dose: 100.0 mg/kg/injection, schedule: Q01DX009 (ip), vehicle: Klucel (hydroxypropylcellulose) (HPC).
Setting [3] is: dose: 200.0 mg/kg/injection, schedule: Q01DX009 (ip), vehicle: Klucel (hydroxypropylcellulose) (HPC).
Where [4] appears, read: dose: 50.0 mg/kg/injection, schedule: Q01DX005 (ip), vehicle: saline with Tween-80.
Setting [5] is: dose: 100.0 mg/kg/injection, schedule: Q01DX005 (ip), vehicle: saline with Tween-80.
[6] abbreviates: dose: 200.0 mg/kg/injection, schedule: Q01DX005 (ip), vehicle: saline with Tween-80.
[7] abbreviates: dose: 50.0 mg/kg/injection, schedule: Q01DX009 (ip), vehicle: saline.
The mark [8] stands for this setting: dose: 100.0 mg/kg/injection, schedule: Q01DX009 (ip), vehicle: saline.
The mark [9] stands for this setting: dose: 200.0 mg/kg/injection, schedule: Q01DX009 (ip), vehicle: saline.
[10] abbreviates: dose: 60.0 mg/kg/injection, schedule: Q01DX005 (ip), vehicle: saline with Tween-80.
The mark [11] stands for this setting: dose: 120.0 mg/kg/injection, schedule: Q01DX005 (ip), vehicle: saline with Tween-80.
Where [12] appears, read: dose: 240.0 mg/kg/injection, schedule: Q01DX005 (ip), vehicle: saline with Tween-80.
Setting [13] is: dose: 60.0 mg/kg/injection, schedule: Q01DX005 (ip), vehicle: Klucel (hydroxypropylcellulose) (HPC).
[14] abbreviates: dose: 120.0 mg/kg/injection, schedule: Q01DX005 (ip), vehicle: Klucel (hydroxypropylcellulose) (HPC).
The mark [15] stands for this setting: dose: 240.0 mg/kg/injection, schedule: Q01DX005 (ip), vehicle: Klucel (hydroxypropylcellulose) (HPC).
The mark [16] stands for this setting: dose: 25.0 mg/kg/injection, schedule: Q01DX009 (ip), vehicle: saline with Tween-80.
[17] abbreviates: dose: 50.0 mg/kg/injection, schedule: Q01DX009 (ip), vehicle: saline with Tween-80.
The mark [18] stands for this setting: dose: 100.0 mg/kg/injection, schedule: Q01DX009 (ip), vehicle: saline with Tween-80.
[19] abbreviates: dose: 200.0 mg/kg/injection, schedule: Q01DX009 (ip), vehicle: saline with Tween-80.
Setting [20] is: dose: 25.0 mg/kg/injection, schedule: Q01DX009 (ip), vehicle: saline.
The mark [21] stands for this setting: dose: 400.0 mg/kg/injection, schedule: Q04DX003 (ip), vehicle: saline.

`CCCCCCC(=O)C(=O)c1ccc(O)cc1O`: the T/C reads like this: under setting [1], 113 % of control; under setting [2], 109 % of control; under setting [3], 109 % of control.
`CCCCCCCCCCCn1nnnc1N`: the T/C under setting [4] was 102 % of control, the T/C under setting [5] is 93 % of control and the T/C under setting [6] is 96 % of control.
Turning to `COC(=O)c1ccnc(-c2cc(C(=O)OC)ccn2)c1`, the T/C runs as follows: under setting [7], 99 % of control; under setting [8], 93 % of control; under setting [9], 92 % of control.
In the case of `CCc1nc(N)nc(N)c1-c1ccc(Cl)c(N=CN(C)C)c1`, the T/C under setting [10] was 102 % of control, the T/C under setting [11] was 108 % of control and the T/C under setting [12] is 108 % of control.
For the compound `O=c1[nH]cnc2ncnn12`, the T/C is 97 % of control (dose: 25.0 mg/kg/injection, schedule: Q01DX009 (ip), vehicle: suspension in saline); 93 % of control (dose: 50.0 mg/kg/injection, schedule: Q01DX009 (ip), vehicle: suspension in saline); 90 % of control (dose: 200.0 mg/kg/injection, schedule: Q01DX009 (ip), vehicle: suspension in saline).
Take `CCOC(=O)N1CCN(C(=O)c2nc3ccc(Cl)cc3[nH]2)CC1`: the T/C is 108 % of control (dose: 50.0 mg/kg/injection, schedule: Q01DX005 (ip), vehicle: Klucel (hydroxypropylcellulose) (HPC)); 87 % of control (dose: 100.0 mg/kg/injection, schedule: Q01DX005 (ip), vehicle: Klucel (hydroxypropylcellulose) (HPC)); 93 % of control (dose: 200.0 mg/kg/injection, schedule: Q01DX005 (ip), vehicle: Klucel (hydroxypropylcellulose) (HPC)).
Regarding `CCCCC[CH2][Ge]([CH2]CCC)([CH2]CCC)[CH]1CCCCC1`, the T/C under setting [7] is 106 % of control, the T/C under setting [8] was 103 % of control and the T/C under setting [9] is 95 % of control.
With `O=C(O)C(Cc1ccsc1)NC(=O)C(F)(F)F` (centres undefined), the T/C was 94 % of control (dose: 50.0 mg/kg/injection, schedule: Q01DX009 (ip), vehicle: saline + alcohol); 99 % of control (dose: 100.0 mg/kg/injection, schedule: Q01DX009 (ip), vehicle: saline + alcohol); 98 % of control (dose: 200.0 mg/kg/injection, schedule: Q01DX009 (ip), vehicle: saline + alcohol).
`CN1C(c2ccccc2)=C(C#N)C(=O)CC(c2cccs2)N1C` (centres undefined): the T/C was 96 % of control under setting [10], 99 % of control under setting [11] and 86 % of control under setting [12].
Turning to `Nc1ccn(C2OC(COP(=O)(O)O)C(O)C2O)c(=O)n1` (centres undefined) (tested in a mixture with another compound), the T/C was 108 % of control under setting [13], 99 % of control under setting [14] and 99 % of control under setting [15].
`CCC(c1ccc(OCC(=O)N/N=C2/CCC3C4CCc5cc(O)ccc5C4CCC23C)cc1)C(CC)c1ccc(OCC(=O)N/N=C2\CCC3C4CCc5cc(O)ccc5C4CCC23C)cc1` (centres undefined): the T/C by setting is: (dose: 25.0 mg/kg/injection, schedule: Q01DX001 (ip), vehicle: Klucel (hydroxypropylcellulose) (HPC)) 98 % of control; (dose: 50.0 mg/kg/injection, schedule: Q01DX001 (ip), vehicle: Klucel (hydroxypropylcellulose) (HPC)) 90 % of control.
Regarding `COc1cccc2c(NCCCN(C)CCCNc3c4ccccc4nc4c(OC)cccc34)c3ccccc3nc12`, the T/C (dose: 1.25 mg/kg/injection, schedule: Q01DX009 (ip), vehicle: water) was 120 % of control; the T/C (dose: 2.5 mg/kg/injection, schedule: Q01DX009 (ip), vehicle: water) is 124 % of control; the T/C (dose: 10.0 mg/kg/injection, schedule: Q01DX009 (ip), vehicle: water) is 163 % of control.
For `C=CC(C(=O)O)S(=O)(=O)O` (centres undefined), the T/C is 112 % of control (dose: 20.0 mg/kg/injection, schedule: Q01DX009 (ip), vehicle: saline with Tween-80) and 103 % of control (dose: 40.0 mg/kg/injection, schedule: Q01DX009 (ip), vehicle: saline with Tween-80).
For the compound `Cc1nc(N)[nH]c(=O)c1CCCN=Cc1ccccc1`, the T/C is 108 % of control under setting [13], 105 % of control under setting [14] and 96 % of control under setting [15].
Turning to `Oc1c(-c2ccccc2)cc(-c2ccc(Br)cc2)c(-c2ccc(Br)cc2)c1-c1ccccc1`, the T/C (dose: 12.5 mg/kg/injection, schedule: Q01DX009 (ip), vehicle: saline with Tween-80) was 107 % of control; the T/C under setting [16] was 95 % of control; the T/C under setting [17] was 98 % of control; the T/C under setting [18] was 105 % of control; the T/C under setting [19] is 96 % of control.
As to `O=c1[nH]n(CCc2ccccn2)c(=O)c(Cl)c1Cl`, the T/C runs as follows: under setting [4], 96 % of control; under setting [5], 100 % of control; under setting [6], 92 % of control.
Take `COC1=Cc2nc3ccccc3nc2OC1(C)C`: the T/C under setting [10] was 110 % of control, the T/C under setting [11] is 100 % of control and the T/C under setting [12] was 92 % of control.
As for `Cl[Si](Cl)(Cl)CCc1ccccn1`, the T/C reads like this: under setting [20], 99 % of control; under setting [7], 86 % of control; under setting [8], 95 % of control; under setting [9], 100 % of control.
As for `NC(N)=NS(=O)(=O)c1ccc(NCc2c3ccccc3nc3cc(Cl)ccc23)cc1`, the T/C was 170 % of control under setting [10], 121 % of control under setting [11] and 116 % of control under setting [12].
For `O=C(c1ccc([N+](=O)[O-])cc1)c1cc2ccccc2oc1=O`, in that order: 91 % of control, 94 % of control and 90 % of control.
As for `CCCCCCCCC(O)CCC` (centres undefined), the T/C by setting is: (dose: 100.0 mg/kg/injection, schedule: Q04DX003 (ip), vehicle: saline) 100 % of control; (dose: 200.0 mg/kg/injection, schedule: Q04DX003 (ip), vehicle: saline) 100 % of control; under setting [21], 100 % of control.
For the compound `CNC(=S)NNc1nnc(NNC(=S)NC)c2ccccc12`, the T/C runs as follows: under setting [7], 94 % of control; under setting [8], 97 % of control; under setting [9], 102 % of control.
For `CN1C2CCC(=O)C1CC2` (centres undefined), the T/C reads like this: (dose: 6.25 mg/kg/injection, schedule: Q01DX005 (ip), vehicle: saline + Tween-80 + alcohol) 100 % of control; (dose: 12.5 mg/kg/injection, schedule: Q01DX005 (ip), vehicle: saline + Tween-80 + alcohol) 100 % of control; (dose: 25.0 mg/kg/injection, schedule: Q01DX005 (ip), vehicle: saline + Tween-80 + alcohol) 99 % of control.
In the case of `c1cc2n(n1)CCN2`, the T/C runs as follows: (dose: 12.5 mg/kg/injection, schedule: Q01DX009 (ip), vehicle: saline) 104 % of control; under setting [20], 109 % of control; under setting [7], 100 % of control and 104 % of control; (dose: 80.0 mg/kg/injection, schedule: Q01DX009 (ip), vehicle: saline) 111 % of control; under setting [8], 111 % of control and 120 % of control; (dose: 120.0 mg/kg/injection, schedule: Q01DX009 (ip), vehicle: saline) 113 % of control. The T/C reads like this: under setting [9], 100 % of control; (dose: 225.0 mg/kg/injection, schedule: Q03DX003 (ip), vehicle: saline) 111 % of control; (dose: 264.0 mg/kg/injection, schedule: Q04DX003 (ip), vehicle: saline) 100 % of control; (dose: 300.0 mg/kg/injection, schedule: Q03DX003 (ip), vehicle: saline) 111 % of control; (dose: 375.0 mg/kg/injection, schedule: Q03DX003 (ip), vehicle: saline) 124 % of control; under setting [21], 118 % of control.
Turning to `CC1(C)CC(=O)C(CC2C(=O)CC(C)(C)CC2=O)C(=O)C1`, the T/C is 87 % of control under setting [16], 97 % of control under setting [17], 103 % of control under setting [18] and 95 % of control under setting [19].
Turning to `O=S(=O)(NCCSSCCNS(=O)(=O)c1ccc(F)cc1)c1ccc(F)cc1`, the T/C by setting is: under setting [1], 95 % of control; under setting [2], 90 % of control; under setting [3], 89 % of control.
